Results taken from ChEMBL document CHEMBL1157964, “Spasmolytic effects of nonprenylated rotenoid constituents of Boerhaavia diffusa roots” (2006).
The source made the active and inactive calls. The rule behind the calls is not given here.

These compounds were tested on Ileum (assay: Antispasmodic activity in guinea pig ileum assessed as inhibition of acetylcholine-induced contraction at 1 uM). Settings: not given.
Assay type: functional, Cavia porcellus
Set-up: scale not given: the % may be the effect or the level left

For `COC(=O)C1=C(C)NC(C)=C(C(=O)OC)C1c1ccccc1[N+](=O)[O-]` [NIFEDIPINE], which Activity is on record?
The Activity was 47.3%.

The compounds below were run on Ileum (assay: Antispasmodic activity in guinea pig ileum assessed as inhibition of acetylcholine-induced contraction at 10 uM). Settings: not given.
Assay type: functional, Cavia porcellus
Set-up: scale not given: the % may be the effect or the level left

Which Activity does the source give for `CC(=O)C1=C(O)[C@@H]2[C@H]3c4c[nH]c5cccc(c45)C[C@H]3C(C)(C)N2C1=O` [CYCLOPIAZONIC ACID] here?
Its Activity is 52.3%.

The compounds below were run on Ileum (assay: Antispasmodic activity in guinea pig ileum assessed as inhibition of acetylcholine-induced contraction at 30 ug/mL). Settings: Cavia porcellus.
Assay type: functional

With `Cc1c(O)cc2oc3c(=O)oc4cc(O)ccc4c3c(=O)c2c1O` [BOERAVINONE F] as the compound, how does the Emax at 30 µg/mL read?
The Emax at 30 µg/mL was 50%.

Which Emax at 30 µg/mL does the source give for `Cc1c(O)cc2oc3c(c(=O)c2c1O)-c1ccc(O)cc1OC3O` (stereo not given) [BOERAVINONE E] here?
The Emax at 30 µg/mL was 100%.

With `COc1cc2c(c(O)c1OC)C(=O)[C@]1(O)c3ccccc3OC[C@H]1O2` [COCCINEONE E] as the compound, how does the Emax at 30 µg/mL read?
The Emax at 30 µg/mL was 25.2%.

With `O=c1c2c(oc3cc(O)cc(O)c13)C(O)Oc1ccccc1-2` (stereo not given) as the compound, how does the Activity read?
Its Activity is “inactive”.

Which Emax at 30 µg/mL does the source give for `COc1cc2oc3c(c(=O)c2c(O)c1O)-c1ccccc1OC3O` (stereo not given) [9-O-METHYL-10-HYDROXYCOCCINEONE B] here?
Its Emax at 30 µg/mL is 36.1%.

With `COc1cc2oc3c(c(=O)c2c(O)c1C)-c1cccc(O)c1OC3O` (stereo not given) [9-O-METHYL-4-HYDROXYBOERAVINONE B] as the compound, how does the Emax at 30 µg/mL read?
The Emax at 30 µg/mL was 100%.

Which Emax at 30 µg/mL does the source give for `COc1ccc(Cc2nccc3cc(OC)c(OC)cc23)cc1OC` [PAPAVERINE] here?
Its Emax at 30 µg/mL is 72.3%.

How did the Activity turn out when `COc1cc2c(c(O)c1C)C(=O)[C@]1(O)c3cccc(O)c3OC[C@H]1O2` was run?
Its Activity is “inactive”.

`COC1Oc2cc(O)ccc2-c2c1oc1cc(O)c(C)c(O)c1c2=O` (stereo not given) was tested. Which Activity did it give?
The Activity was “inactive”.

How did the Activity turn out when `COc1cc2oc3c(c(=O)c2c(O)c1C)-c1cccc(O)c1OC3OC` (stereo not given) was run?
Its Activity is “inactive”.

How did the Emax at 30 µg/mL turn out when `COc1cc(O)c2c(=O)c3c(oc2c1)C(OC)Oc1c(O)cccc1-3` (stereo not given) [BOERAVINONE G] was run?
The Emax at 30 µg/mL was 60%.

How did the Emax at 30 µg/mL turn out when `COc1ccccc1-c1coc2cc(O)c(C)c(O)c2c1=O` was run?
The Emax at 30 µg/mL was 36.8%.

With `COc1cc(O)c2c(c1)O[C@@H]1COc3c(O)cccc3[C@@]1(O)C2=O` as the compound, how does the Emax at 30 µg/mL read?
The Emax at 30 µg/mL was 19.4%.
